Consider seven compounds from EP4729516A1, “S[…] DERIVATIVE, INTERMEDIATE, PREPARATION METHOD THEREFOR AND USE THEREOF” (Jiangsu NHWA Pharmaceutical Co., Ltd, priority 2023, dated 2024).

Data set [1] concerns Male SD rats. As to the kind of experiment: Fluctuations in blood pressure and heart rate after administration. Conditions: for maximum decrease rates of HR / recovery of HR / maximum increase rates of MAP: compared with dexmedetomidine hydrochloride; for HR decrease Maximum decrease rate / MAP decrease Maximum decrease rate / MAP increase Maximum increase rate: dose as in Test Example 3, within 90 min; for decreases in MAP: no significant decreases greater than the stated value. In kind it is in vivo. The protocol:
Male SD rats, weighing 250-300 g, with 4 rats per group, were maintained under general anesthesia by isoflurane inhalation. Femoral artery cannulation was performed, and blood pressure and heart rate were monitored using a Powerlab data acquisition and analysis system. 30 min after the baseline values stabilized, the baseline mean arterial pressure (MAP0) and baseline heart rate (HR0) were measured. The rats were given a solution of each compound in normal saline via tail vein injection (the dose of each compound was the same as in Test Example 3, with rapid intravenous injection over 10 s). Blood pressure and heart rate were continuously recorded for 90 min. MAP^+ (the difference between the maximum mean arterial pressure (MAPmax) and MAP0), MAP^-(the difference between the minimum mean arterial pressure (MAPmin) and MAP0), and HR^- (the difference between the minimum heart rate (HRmin) and HR0) within 90 min were calculated. For calculation, the maximum increase rate of mean arterial pressure = MAP^+/MAP0 × 100%; the maximum decrease rate of mean arterial pressure = MAP^-/MAP0 × 100%; and the maximum decrease rate of heart rate = HR^-/HR0 × 100%.

For data set [2], the system named is Male SD rats. Nature of the data set: Hypnotic efficacy: loss of righting reflex (LORR) in rats. The data set is classed as in vivo. Conditions: for ED50: Rattus norvegicus, tail vein injection over 10 s, sequential method; for induce sleep in rats: time to induce sleep, dose twice the ED50. The protocol: The sequential method was used to determine the ED50 (median effective dose) for the loss of righting reflex (LORR) by the compounds of the present disclosure in rats: Male SD rats, weighing 200-300 grams, were used. Each compound was dissolved in normal saline and administered via tail vein injection at an initial dose at a constant injection rate over 10 s (one rat per dose). […] This process was repeated, and the results were recorded in the AOT425 Statpm software until the software could calculate the ED50, at which point the experiment was terminated. The hypnotic efficacy of the compounds of the present disclosure was evaluated using ED50 with lower ED50 values indicating stronger efficacy.
Comparison of onset time and duration: Male SD rats, weighing 200-300 grams, were used. Each compound was dissolved in normal saline and administered via tail vein injection at a constant injection rate over 10 s, with 10 rats per group. […] The onset time and duration were recorded.
The onset time refers to the period from the completion of injection to when the rat is placed in a supine position, with the criterion for loss of righting reflex defined as the rat's inability to spontaneously revert to a prone position using its forelimbs and maintained for ≥10 s, which serves as an indicator of compound efficacy; the duration refers to the sustained period during which the rat remains in a state of losing righting reflex. The spontaneous recovery of the righting reflex in the rat is considered the cessation of the efficacy.

[3] abbreviates: isoflurane-anesthetized male SD rats, tail vein injection, dose as in Test Example 3.
Where [4] appears, read: isoflurane-anesthetized male SD rats, tail vein injection.
[5] abbreviates: loss of righting reflex, male SD rats.
[6] abbreviates: in words, compared with dexmedetomidine hydrochloride, rats.
Where [7] appears, read: loss of righting reflex, male SD rats, tail vein injection, dose twice the ED50, 10 rats per group.

Molecules are shown by their SMILES. Structures can show the parent of a compound that is named as a salt.

As for `CC(c1c[nH]cn1)c1cccc2c1C=CC2` (stereo not drawn) [Compound 8, 4-[1-(1H-Inden-4-yl)ethyl]-1H-imidazole], in data set [1] (in words, rats), the “maximum decrease rates of HR” value is reported as “lower” and the “recovery of HR” value is on record as “faster”. Moreover, in data set [1] (setting [3]), the “HR decrease Duration” value is reported as 60 min and the “MAP increase Duration” value came out at 2 min. In data set [1] (setting [4]), the “HR decrease Maximum decrease rate” value is on record as 24.9±10.8%, the “MAP decrease Maximum decrease rate” value was 7.1±4.1% and the “MAP increase Maximum increase rate” value is reported as 32.0±10.5%. For the same compound, in data set [1] (rats), the “decreases in MAP” value is ≤ 10%. The same compound yielded a median effective dose (ED50) in data set [2] (setting [5]) of 0.0213 mg/kg. In addition, in data set [2] (setting [6]), the Duration entry was “significantly shorter” and the hypnotic onset time entry is recorded as “comparable to or slightly longer”. In data set [2] (setting [7]), this compound had a Duration of 635.80±697.73 S and an Onset time of 161.70±101.69 S. Further, in data set [2] (rats), the “induce sleep in rats” value is ≤ 5 min.

As for `CC(c1c[nH]cn1)c1cccc2c1OCC2` (stereo not drawn) [Compound 10, 4-[1-(2,3-Dihydrobenzofuran-7-yl)ethyl]-1H-imidazole], in data set [1] (in words, rats), the “maximum decrease rates of HR” value is listed as “lower”, the “maximum increase rates of MAP” value is listed as “lower” and the “recovery of HR” value was “faster”. Further, in data set [1] (setting [3]), the “HR decrease Duration” value is reported as 30 min and the “MAP increase Duration” value is on record as 2 min. In data set [1] (setting [4]), the “HR decrease Maximum decrease rate” value worked out at 24.2±5.7 %, the “MAP decrease Maximum decrease rate” value amounted to 7.9±7.4% and the “MAP increase Maximum increase rate” value was found to be 17.3±5.0 %. Besides, the “decreases in MAP” value in data set [1] (rats) is given as ≤ 10%. For the same compound, the ED50 in data set [2] (setting [5]) is 0.0088 mg/kg. In data set [2] (setting [6]), the Duration entry is listed as “significantly shorter” and the hypnotic onset time result is “comparable to or slightly longer”. Besides, in data set [2] (setting [7]), the Duration is 508.10±572.65 S and the Onset time stood at 219.90±93.88 S. In addition, in data set [2] (rats), the “induce sleep in rats” value is recorded as ≤ 5 min.

Consider `C[C@H](c1c[nH]cn1)c1cc(F)cc2c1C=CC2` [Compound 11-b, 4-[(1S)-1-(6-fluoro-1H-inden-4-yl)ethyl]-1H-imidazole], for which, in data set [1] (in words, rats), the “maximum decrease rates of HR” value was “lower”, the “maximum increase rates of MAP” value is given as “lower” and the “recovery of HR” value is recorded as “faster”. Further, in data set [1] (setting [3]), the “HR decrease Duration” value is recorded as 60 min and the “MAP increase Duration” value was determined as 2 min. Moreover, in data set [1] (setting [4]), the “HR decrease Maximum decrease rate” value was 31.2±3.19%, the “MAP decrease Maximum decrease rate” value was 6.7±4.02% and the “MAP increase Maximum increase rate” value is on record as 24.1±4.96%. Moreover, the “decreases in MAP” value in data set [1] (rats) is on record as ≤ 10%. This compound showed an ED50 in data set [2] (setting [5]) of 0.0256 mg/kg. In data set [2] (setting [6]), the Duration entry was “significantly shorter” and the hypnotic onset time result is “significantly shorter”. For the same compound, in data set [2] (setting [7]), the Duration worked out at 666.00±376.66 S and the Onset time came out at 45.20±7.38 S.

Turning to `CC(c1c[nH]cn1)c1cccc2c1C=CC2(C)C` (stereo not drawn) [Compound 17, 4-[1-(1,1-Dimethyl-1H-inden-4-yl)ethyl]-1H-imidazole], in data set [2] (setting [5]), it took a dose of 0.276 mg/kg to reach the 50% effect level (ED50). Moreover, in data set [2] (setting [6]), the Duration result was “significantly shorter” and the hypnotic onset time result is “comparable to or slightly longer”. In data set [2] (setting [7]), this compound came in with a Duration of 1602.50±681.51 S and an Onset time of 101.80±154.86 S. Also, in data set [2] (rats), the “induce sleep in rats” value is reported as ≤ 5 min.

Consider `C[C@H](c1c[nH]cn1)c1cccc2c1CCC2` [Compound 31-b, (S)-4-[1-(2,3-dihydro-1H-inden-4-yl)ethyl]-1H-imidazole], for which, in data set [1] (in words, rats), the “maximum decrease rates of HR” value is “lower”, the “maximum increase rates of MAP” value was “lower” and the “recovery of HR” value was “faster”. In data set [1] (setting [3]), the “HR decrease Duration” value is recorded as 60 min and the “MAP increase Duration” value is reported as 2 min. In addition, in data set [1] (setting [4]), the “HR decrease Maximum decrease rate” value came out at 30.2±7.7%, the “MAP decrease Maximum decrease rate” value worked out at 5.3±4.6% and the “MAP increase Maximum increase rate” value amounted to 24.0±11.1%. For the same compound, in data set [1] (rats), the “decreases in MAP” value is ≤ 10%. In data set [2] (setting [5]), this compound returned an ED50 of 0.0268 mg/kg. In addition, in data set [2] (setting [6]), the Duration entry is given as “significantly shorter” and the hypnotic onset time entry is on record as “comparable to or slightly longer”. In data set [2] (setting [7]), this compound came in with a Duration of 1147.78±656.35 S and an Onset time of 100.44±49.16 S. Moreover, the “induce sleep in rats” value in data set [2] (rats) is reported as ≤ 5 min.

In data set [2] (setting [5]), `C[C@H](c1c[nH]cn1)c1cc(F)cc2c1C(=O)CC2` [Compound 38-b, (S)-7-(1-(1H-imidazol-4-yl)ethyl)-5-fluoro-2,3-dihydro-1H-inden-1-one] gave a 50% effective dose (ED50) of 0.032 mg/kg. Besides, in data set [2] (setting [6]), the Duration entry is recorded as “significantly shorter” and the hypnotic onset time entry was “comparable to or slightly longer”. In data set [2] (setting [7]), this compound displayed a Duration of 228.22±158.93 S and an Onset time of 102.44±52.34 S. Also, the “induce sleep in rats” value in data set [2] (rats) was ≤ 5 min.

Turning to `Cc1cccc([C@H](C)c2cnc[nH]2)c1C` [Dexmedetomidine hydrochloride, reference compound], the “change in MAP after administration” value in data set [1] (in words, initial increase followed by a decrease, rats) was “biphasic change in MAP”. In data set [1] (setting [3]), the “HR decrease Duration” value is on record as 90 min, the “MAP decrease Duration” value is listed as 90 min and the “MAP increase Duration” value was found to be 2 min. For the same compound, in data set [1] (setting [4]), the “HR decrease Maximum decrease rate” value came out at 33.8±5.3%, the “MAP decrease Maximum decrease rate” value came to 16.5±14.6% and the “MAP increase Maximum increase rate” value was determined as 27.7±4.1%. Moreover, in data set [1] (rats, recording for 90 min), the “sustained reductions in MAP and HR” value came out at 90 min. In data set [2] (setting [5]), this compound displayed an ED50 of 0.01 mg/kg. In data set [2] (setting [7]), the Duration was 3275.10±796.79 S and the Onset time is reported as 77.80±28.56 S.

By ED50 is commonly meant the midpoint of the dose-response relation. High values mean weaker potency, low ones greater potency.
